For 24 compounds, IC50 results are on record in patent US9266876B2 (Actelion Pharmaceuticals Ltd., priority 2012, dated 2016).

human CXCR3A, sequence (P49682 whole entry): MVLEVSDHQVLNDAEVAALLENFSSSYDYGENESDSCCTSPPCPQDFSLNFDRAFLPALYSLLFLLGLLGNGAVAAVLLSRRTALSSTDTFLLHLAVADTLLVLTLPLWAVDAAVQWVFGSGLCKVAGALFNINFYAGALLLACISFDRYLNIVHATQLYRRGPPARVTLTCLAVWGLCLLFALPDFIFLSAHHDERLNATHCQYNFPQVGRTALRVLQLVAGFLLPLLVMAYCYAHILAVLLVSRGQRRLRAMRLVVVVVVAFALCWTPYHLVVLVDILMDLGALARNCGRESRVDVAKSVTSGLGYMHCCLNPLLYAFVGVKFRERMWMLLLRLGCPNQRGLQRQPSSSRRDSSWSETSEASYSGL
CXCR3, sequence (P49682 whole entry): as above

The target in the first assay is CXCR3 (Homo sapiens (Human), UniProt P49682). The assay can be described thus: Receptor internalization assay. The conditions noted are these: human whole blood; final CXCL10 concentration 9 nM; 30 min 37° C.; CXCR3 cell surface expression on CD3 positive cells, flow cytometer; read-out: Internalization IC50. The assay is classed as cell-based. On the procedure:
B): Receptor Internalization Assay:
Stock solutions of test compounds are made up at a concentration of 10 mM in DMSO, and serially diluted in PBS containing 0.5% BSA to concentrations required for inhibition dose response curves. Diluted compounds are then mixed with an equal volume of CXCL10 (Peprotech) diluted in PBS. Anticoagulated venous human whole blood is added to the mixture, which is then incubated in a CO2 incubator at 37° C. to allow for ligand mediated receptor internalization (final CXCL10 concentration is 9 nM). After 30′, the blood is mixed with fluorescently labeled CXCR3 and CD3 specific antibodies (Becton Dickinson) and incubated on ice for 10 minutes. Samples are then mixed with BD FACS Lysing Solution (Becton Dickinson) in order to eliminate red blood cells. After washing the cells with PBS containing 0.5% BSA, the samples are then analyzed in a flow cytometer (FACS Canto II, Becton Dickinson). For data analysis using FACSDiva software (Becton Dickinson), the mean fluorescence corresponding to CXCR3 cell surface expression was determined on CD3 positive cells. The program GraphPad Prism is used to fit the data to a single site dose response curve and to calculate IC50 values.
`CC(O)c1nc(-c2nc3ccccc3[nH]2)c(N2CCN(C(=O)Cn3ccc4cccnc43)CC2)s1` (racemic) [Example 43, rac-1-{4-[4-(1H-Benzoimidazol-2-yl)-2-(1-hydroxy-ethyl)-thiazol-5-yl]-piperazin-1-yl}-2-pyrrolo[2,3-b]pyridin-1-yl-ethanone]: the IC50 was 4090 nM. The same measure, in the same setting: under `O=C(Cn1cnc2ccccc21)N1CCN(c2scnc2-c2nc3ccccc3[nH]2)CC1` [Example 1, 2-Benzoimidazol-1-yl-1-{4-[4-(1H-benzoimidazol-2-yl)-thiazol-5-yl]-piperazin-1-yl}-ethanone] stands 3080 nM; under `Cc1nc2ccccc2n1CC(=O)N1CCN(c2scnc2-c2nc3ccccc3[nH]2)CC1` [Example 2, 1-{4-[4-(1H-Benzoimidazol-2-yl)-thiazol-5-yl]-piperazin-1-yl}-2-(2-methyl-benzoimidazol-1-yl)-ethanone], 3360 nM. Still for that read-out and setting: under `Cn1c(=O)n(CC(=O)N2CCN(c3scnc3-c3nc4ccccc4[nH]3)CC2)c2ccccc21` [Example 3, 1-(2-{4-[4-(1H-Benzoimidazol-2-yl)-thiazol-5-yl]-piperazin-1-yl}-2-oxo-ethyl)-3-methyl-1,3-dihydro-benzoimidazol-2-one] stands 1200 nM.

The target of a further assay is human CXCR3A (Homo sapiens (Human), UniProt P49682). The assay can be described thus: FLIPR assay. The assay is classed as cell-based. The conditions noted are these: CHO-K1 cells expressing the human CXCR3A coupled to Galpha(16); CXCL10 agonist 20 nM; Fluo-4-AM fluorescence; mean values if determined several times. As to the method:
The bioactivity of compounds is tested in a fluorometric imaging plate reader (FLIPR: Molecular Devices) using engineered CHO-K1 cells expressing the human CXCR3A coupled to a G protein (Galpha(16)). Cells are plated the day prior to bioassay in F12 medium supplemented with 10% FBS and G418 and hygromycin antibiotics to maintain recombinant selection. At the day of bioassay, cells are washed and dye loaded for one hour with Fluo-4-AM (Invitrogen) in Hanks Balanced Salt Solution (Invitrogen), buffered with 20 mM Hepes at pH 7.4 and sodium bicarbonate (0.015%), containing 5 mM probenecid. […] Cells are washed free of excess dye and 60 microliter of wash buffer is added. Stock solutions of test compounds are made up at a concentration of 10 mM in DMSO, and serially diluted in dilution buffer to concentrations required for inhibition dose response curves. After a 10 minute incubation period at 37° C., 10 microliters of each compound dilution are transferred from a compound plate to the plate containing the recombinant cells in the FLIPR instrument according to the manufacturer's instructions. Following basal readings, 10 microliter CXCL10 agonist at a concentration of 20 nM (from Peprotech) is added, again using the FLIPR instrument. Changes in fluorescence are monitored before and after addition of the test compounds. Emission peak values above base level after CXCL10 addition are exported after base line subtraction. The program XLfit is used to fit the data to a single site dose response curve and to calculate IC50 values.
In the case of `CC(O)c1nc(-c2nc3ccccc3[nH]2)c(N2CCN(C(=O)Cn3ccc4cccnc43)CC2)s1` (racemic) [Example 43, rac-1-{4-[4-(1H-Benzoimidazol-2-yl)-2-(1-hydroxy-ethyl)-thiazol-5-yl]-piperazin-1-yl}-2-pyrrolo[2,3-b]pyridin-1-yl-ethanone], the IC50 turned out to be 55 nM. With `O=C(Cn1cnc2ccccc21)N1CCN(c2scnc2-c2nc3ccccc3[nH]2)CC1` [Example 1, 2-Benzoimidazol-1-yl-1-{4-[4-(1H-benzoimidazol-2-yl)-thiazol-5-yl]-piperazin-1-yl}-ethanone], the IC50 worked out at 30 nM. `Cc1nc2ccccc2n1CC(=O)N1CCN(c2scnc2-c2nc3ccccc3[nH]2)CC1` [Example 2, 1-{4-[4-(1H-Benzoimidazol-2-yl)-thiazol-5-yl]-piperazin-1-yl}-2-(2-methyl-benzoimidazol-1-yl)-ethanone] gave an IC50 of 198 nM. The same measure, in the same setting: under `Cn1c(=O)n(CC(=O)N2CCN(c3scnc3-c3nc4ccccc4[nH]3)CC2)c2ccccc21` [Example 3, 1-(2-{4-[4-(1H-Benzoimidazol-2-yl)-thiazol-5-yl]-piperazin-1-yl}-2-oxo-ethyl)-3-methyl-1,3-dihydro-benzoimidazol-2-one] stands 15 nM; under `C[C@@H]1CN(c2scnc2-c2nc3ccccc3[nH]2)CCN1C(=O)Cc1ccc2c(c1)NC(=O)CO2` [Example 122, 6-(2-{(R)-4-[4-(1H-Benzoimidazol-2-yl)-thiazol-5-yl]-2-methyl-piperazin-1-yl}-2-oxo-ethyl)-4H-benzo[1,4]oxazin-3-one], 152 nM; under `C[C@@H]1CN(c2scnc2-c2nc3ccccc3[nH]2)CCN1C(=O)Cc1cccc2[nH]ccc12` [Example 123, 1-{(R)-4-[4-(1H-Benzoimidazol-2-yl)-thiazol-5-yl]-2-methyl-piperazin-1-yl}-2-(1H-indol-4-yl)-ethanone], 69 nM. Still for that read-out and setting: under `C[C@@H]1CN(c2scnc2-c2nc3ccccc3[nH]2)CCN1C(=O)Cc1c[nH]c2ccccc12` [Example 124, 1-{(R)-4-[4-(1H-Benzoimidazol-2-yl)-thiazol-5-yl]-2-methyl-piperazin-1-yl}-2-(1H-indol-3-yl)-ethanone] stands 10 nM; under `C[C@@H]1CN(c2scnc2-c2nc3ccccc3[nH]2)CCN1C(=O)Cc1cn(C)c2ccccc12` [Example 125, 1-{(R)-4-[4-(1H-Benzoimidazol-2-yl)-thiazol-5-yl]-2-methyl-piperazin-1-yl}-2-(1-methyl-1H-indol-3-yl)-ethanone], 71 nM; under `COc1ccc2[nH]cc(CC(=O)N3CCN(c4scnc4-c4nc5ccccc5[nH]4)C[C@H]3C)c2c1` [Example 126, 1-{(R)-4-[4-(1H-Benzoimidazol-2-yl)-thiazol-5-yl]-2-methyl-piperazin-1-yl}-2-(5-methoxy-1H-indol-3-yl)-ethanone], 68 nM. On the same count and under the same terms, under `C[C@@H]1CN(c2scnc2-c2nc3ccccc3[nH]2)CCN1C(=O)Cc1c[nH]c2ccc(Cl)cc12` [Example 127, 1-{(R)-4-[4-(1H-Benzoimidazol-2-yl)-thiazol-5-yl]-2-methyl-piperazin-1-yl}-2-(5-chloro-1H-indol-3-yl)-ethanone] stands 490 nM; under `C[C@@H]1CN(c2scnc2-c2nc3ccccc3[nH]2)CCN1C(=O)Cc1c[nH]c2ccc(F)cc12` [Example 128, 1-{(R)-4-[4-(1H-Benzoimidazol-2-yl)-thiazol-5-yl]-2-methyl-piperazin-1-yl}-2-(5-fluoro-1H-indol-3-yl)-ethanone], 47 nM; under `C[C@@H]1CN(c2scnc2-c2nc3ccccc3[nH]2)CCN1C(=O)Cc1nc2cc(Cl)ccc2[nH]1` [Example 129, 1-{(R)-4-[4-(1H-Benzoimidazol-2-yl)-thiazol-5-yl]-2-methyl-piperazin-1-yl}-2-(5-chloro-1H-benzoimidazol-2-yl)-ethanone], 109 nM. Compound `Cc1ccc2onc(CC(=O)N3CCN(c4scnc4-c4nc5ccccc5[nH]4)C[C@H]3C)c2c1` [Example 131, 1-{(R)-4-[4-(1H-Benzoimidazol-2-yl)-thiazol-5-yl]-2-methyl-piperazin-1-yl}-2-(5-methyl-benzo[d]isoxazol-3-yl)-ethanone] gave an IC50 of 8 nM. Same read-out and setting: under `C[C@@H]1CN(c2scnc2-c2nc3ccccc3[nH]2)CCN1C(=O)Cc1csc2ccccc12` [Example 133, 2-Benzo[b]thiophen-3-yl-1-{(R)-4-[4-(1H-benzoimidazol-2-yl)-thiazol-5-yl]-2-methyl-piperazin-1-yl}-ethanone] stands 6 nM; under `C[C@@H]1CN(c2scnc2-c2nc3ccccc3[nH]2)CCN1C(=O)Cc1csc2ccc(Cl)cc12` [Example 134, 1-{(R)-4-[4-(1H-Benzoimidazol-2-yl)-thiazol-5-yl]-2-methyl-piperazin-1-yl}-2-(5-chloro-benzo[b]thiophen-3-yl)-ethanone], 115 nM; under `COc1ccc2c(CC(=O)N3CCN(c4scnc4-c4nc5ccccc5[nH]4)C[C@H]3C)coc2c1` [Example 135, 1-{(R)-4-[4-(1H-Benzoimidazol-2-yl)-thiazol-5-yl]-2-methyl-piperazin-1-yl}-2-(6-methoxy-benzofuran-3-yl)-ethanone], 88 nM. The same measure, in the same setting: the result for `C[C@@H]1CN(c2scnc2-c2nc3ccccc3[nH]2)CCN1C(=O)Cc1ccc2c(c1)CCO2` [Example 136, 1-{(R)-4-[4-(1H-Benzoimidazol-2-yl)-thiazol-5-yl]-2-methyl-piperazin-1-yl}-2-(2,3-dihydro-benzofuran-5-yl)-ethanone] reads 26 nM.

In turn, `C[C@@H]1CN(c2scnc2-c2nc3ccccc3[nH]2)CCN1C(=O)Cn1ccc2ncc(Cl)nc21` [Example 140, 1-{(R)-4-[4-(1H-Benzoimidazol-2-yl)-thiazol-5-yl]-2-methyl-piperazin-1-yl}-2-(3-chloro-pyrrolo[2,3-b]pyrazin-5-yl)-ethanone] yielded an IC50 of 6 nM. Same read-out and setting: under `C[C@@H]1CN(c2scnc2-c2nc3cc(Cl)ccc3[nH]2)CCN1C(=O)CN1CCc2ccccc21` [Example 145, 1-{(R)-4-[4-(5-Chloro-1H-benzoimidazol-2-yl)-thiazol-5-yl]-2-methyl-piperazin-1-yl}-2-(2,3-dihydro-indol-1-yl)-ethanone] stands 11 nM; under `C[C@@H]1CN(c2scnc2-c2nc3ccccc3[nH]2)CCN1C(=O)Cn1cccc2oc(=O)nc1-2` [Example 156, 4-(2-{(R)-4-[4-(1H-Benzoimidazol-2-yl)-thiazol-5-yl]-2-methyl-piperazin-1-yl}-2-oxo-ethyl)-4H-oxazolo[4,5-b]pyridin-2-one], 64 nM; under `C[C@@H]1CN(c2scnc2-c2nc3ccccc3[nH]2)CCN1C(=O)CN1C(=O)C(=O)c2ccccc21` [Example 157, 1-(2-{(R)-4-[4-(1H-Benzoimidazol-2-yl)-thiazol-5-yl]-2-methyl-piperazin-1-yl}-2-oxo-ethyl)-1H-indole-2,3-dione], 4 nM.

Turning to `C[C@@H]1CN(c2sc(CCC(=O)O)nc2-c2nc3ccccc3[nH]2)CCN1C(=O)Cn1ccc2cccnc21` [Example 224, 3-{4-(1H-Benzoimidazol-2-yl)-5-[(R)-3-methyl-4-(2-pyrrolo[2,3-b]pyridin-1-yl-acetyl)-piperazin-1-yl]-thiazol-2-yl}-propionic acid], the IC50 was 100 nM. Same read-out and setting: the result for `Cc1nc(C)n(CC(=O)N2CCN(c3sc(C(F)(F)F)nc3-c3nc4ccc(N5CCCC5=O)cc4[nH]3)C[C@H]2C)n1` [Example 235, 1-[2-(5-{(R)-4-[2-(3,5-Dimethyl-[1,2,4]triazol-1-yl)-acetyl]-3-methyl-piperazin-1-yl}-2-trifluoromethyl-thiazol-4-yl)-3H-benzoimidazol-5-yl]-pyrrolidin-2-one] reads 30 nM; that for `O=C(Cn1cnc2cccnc21)N1CCN(c2ncsc2-c2nc3ccccc3[nH]2)CC1` [compound 114, 1-{4-[5-(1H-Benzoimidazol-2-yl)-thiazol-4-yl]-piperazin-1-yl}-2-imidazo[4,5-b]pyridin-3-yl-ethanone, reference compound], 2990 nM.
